Experimental data reported in ChEMBL document CHEMBL1201862, “PubChem BioAssay data set” (2004).
Each block holds one compound with its values, some of them ahead of it. The source made the active and inactive calls.

Columns and labels:
[1] = molecular target: T1, Serine/threonine-protein phosphatase (Candida dubliniensis (strain CD36 / CBS 7987 / NCPF 3949 / NRRLY-17841) (Yeast), UniProt B9W6M3); experiment: Fluorescence Cell-Based Secondary Assay to Identify Inhibitors of Calcineurin. [Related pubchem assays (depositor defined):AID1979, AID2007]; type: functional
T1 sequence (B9W6M3 whole entry): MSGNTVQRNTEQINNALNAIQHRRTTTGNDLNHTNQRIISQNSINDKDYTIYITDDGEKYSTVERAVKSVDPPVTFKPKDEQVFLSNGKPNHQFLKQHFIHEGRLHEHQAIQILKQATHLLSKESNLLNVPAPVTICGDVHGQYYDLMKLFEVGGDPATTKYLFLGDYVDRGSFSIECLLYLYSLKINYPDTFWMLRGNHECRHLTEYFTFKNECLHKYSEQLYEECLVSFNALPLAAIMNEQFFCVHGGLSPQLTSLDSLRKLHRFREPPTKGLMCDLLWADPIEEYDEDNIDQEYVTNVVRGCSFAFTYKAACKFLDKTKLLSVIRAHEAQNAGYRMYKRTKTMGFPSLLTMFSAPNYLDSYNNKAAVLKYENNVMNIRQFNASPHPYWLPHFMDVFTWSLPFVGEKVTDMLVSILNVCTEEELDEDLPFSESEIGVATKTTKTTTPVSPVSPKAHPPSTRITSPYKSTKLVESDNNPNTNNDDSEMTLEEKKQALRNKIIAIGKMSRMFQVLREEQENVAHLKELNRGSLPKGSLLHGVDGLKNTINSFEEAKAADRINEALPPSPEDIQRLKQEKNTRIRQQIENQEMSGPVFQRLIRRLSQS

[2] = molecular target: T2, Alkaline phosphatase, tissue-nonspecific isozyme (Homo sapiens, UniProt P05186); experiment: activation of tissue-nonspecific alkaline phosphatase – biochemical, TNAP isozyme, human IAP uHTS hits, selectivity assay for human IAP activator project, dose response (AID 488886); type: functional;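 further: potency of compounds raising TNAP activity as a selectivity check on IAP activators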
T2 sequence (P05186 whole entry): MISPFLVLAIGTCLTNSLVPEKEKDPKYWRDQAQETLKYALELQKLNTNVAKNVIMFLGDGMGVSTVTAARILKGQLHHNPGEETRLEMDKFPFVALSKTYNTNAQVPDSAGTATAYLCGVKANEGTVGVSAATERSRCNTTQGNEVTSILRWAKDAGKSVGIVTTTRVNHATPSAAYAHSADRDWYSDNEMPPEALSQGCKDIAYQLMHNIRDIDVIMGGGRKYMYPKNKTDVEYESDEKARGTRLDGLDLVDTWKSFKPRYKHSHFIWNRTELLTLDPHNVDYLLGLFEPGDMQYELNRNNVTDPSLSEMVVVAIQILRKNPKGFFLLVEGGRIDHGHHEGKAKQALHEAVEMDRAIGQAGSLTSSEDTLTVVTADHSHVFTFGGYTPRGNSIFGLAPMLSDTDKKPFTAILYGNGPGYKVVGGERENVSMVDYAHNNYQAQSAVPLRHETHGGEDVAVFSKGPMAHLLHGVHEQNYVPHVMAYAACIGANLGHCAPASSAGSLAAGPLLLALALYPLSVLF

[3] = molecular target: T3, Intestinal-type alkaline phosphatase (Homo sapiens, UniProt P09923); experiment: human intestinal alkaline phosphatase activators, dose response, biochemical, luminescence, uHTS hits (AID 463120); type: functional
T3 sequence (P09923 whole entry): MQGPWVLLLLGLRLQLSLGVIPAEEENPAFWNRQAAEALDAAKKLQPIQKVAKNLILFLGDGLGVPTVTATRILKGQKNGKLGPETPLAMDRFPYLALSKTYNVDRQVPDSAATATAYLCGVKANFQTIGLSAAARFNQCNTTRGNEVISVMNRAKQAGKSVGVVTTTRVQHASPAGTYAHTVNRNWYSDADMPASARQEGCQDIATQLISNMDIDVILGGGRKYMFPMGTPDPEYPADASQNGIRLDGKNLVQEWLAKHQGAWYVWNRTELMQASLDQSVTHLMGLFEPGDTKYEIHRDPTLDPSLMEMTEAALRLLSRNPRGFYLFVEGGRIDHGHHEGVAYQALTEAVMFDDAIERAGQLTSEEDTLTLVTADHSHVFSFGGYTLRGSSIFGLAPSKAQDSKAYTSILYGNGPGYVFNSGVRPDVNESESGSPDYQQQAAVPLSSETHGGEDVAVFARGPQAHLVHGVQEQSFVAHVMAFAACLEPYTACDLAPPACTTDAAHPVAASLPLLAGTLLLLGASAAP

[4] = molecular target: T4, Intestinal-type alkaline phosphatase (Mus musculus, UniProt P24822); experiment: PubChem AID 488874; type: functional
T4 sequence (P24822 whole entry): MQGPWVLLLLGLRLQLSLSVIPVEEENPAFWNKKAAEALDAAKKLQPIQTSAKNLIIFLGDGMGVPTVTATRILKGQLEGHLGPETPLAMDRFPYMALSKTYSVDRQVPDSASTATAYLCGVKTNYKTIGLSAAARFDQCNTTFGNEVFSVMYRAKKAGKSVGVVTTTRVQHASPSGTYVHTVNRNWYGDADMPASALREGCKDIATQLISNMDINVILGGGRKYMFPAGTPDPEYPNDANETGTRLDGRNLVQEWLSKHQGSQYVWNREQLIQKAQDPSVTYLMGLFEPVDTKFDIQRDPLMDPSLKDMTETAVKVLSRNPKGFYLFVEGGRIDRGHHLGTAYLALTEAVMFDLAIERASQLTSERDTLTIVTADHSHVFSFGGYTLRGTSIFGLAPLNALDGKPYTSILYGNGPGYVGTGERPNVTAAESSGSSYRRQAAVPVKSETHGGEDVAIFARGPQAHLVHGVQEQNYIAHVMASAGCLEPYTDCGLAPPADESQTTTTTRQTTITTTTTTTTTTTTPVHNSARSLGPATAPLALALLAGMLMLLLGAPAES

[5] = molecular target: T3, Intestinal-type alkaline phosphatase; experiment: activation of human intestinal alkaline phosphatase – biochemical, luminescent, uHTS hits, set 2, dose response (AID 488817); type: functional;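 further: potency of activators that raise enzyme activity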
[6] = molecular target: T5, Mannose-6-phosphate isomerase (Homo sapiens, UniProt P34949); experiment: MPI inhibition at elevated mannose 6-phosphate – biochemical, fluorescence intensity, high mannose 6-phosphate, primary screen (AID 1220)
T5 sequence (P34949 whole entry): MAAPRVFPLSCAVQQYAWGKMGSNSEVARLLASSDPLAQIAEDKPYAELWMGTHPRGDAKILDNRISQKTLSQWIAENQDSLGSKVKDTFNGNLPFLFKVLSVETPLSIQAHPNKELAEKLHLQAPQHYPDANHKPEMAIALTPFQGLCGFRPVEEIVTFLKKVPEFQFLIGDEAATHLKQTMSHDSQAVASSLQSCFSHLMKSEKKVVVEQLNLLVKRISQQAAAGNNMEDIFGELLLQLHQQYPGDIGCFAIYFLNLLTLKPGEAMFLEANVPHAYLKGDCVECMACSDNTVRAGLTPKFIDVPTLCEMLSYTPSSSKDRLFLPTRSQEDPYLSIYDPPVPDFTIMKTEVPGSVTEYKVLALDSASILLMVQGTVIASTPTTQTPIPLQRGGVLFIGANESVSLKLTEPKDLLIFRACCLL

[7] = molecular target: T5, Mannose-6-phosphate isomerase; experiment: phosphomannose isomerase inhibition – biochemical, fluorescence intensity, confirmation (AID 1535)
[8] = molecular target: Eukaryotic translation initiation factor 4E (Mus musculus, UniProt P63073); experiment: blockers of eIF4G binding by eIF4E – biochemical, TR-FRET, dose response (AID 855); type: functional;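 further: potency for disrupting eIF4E binding to eIF4GI seen as loss of FRET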
Phosphomannomutase 2 = Phosphomannomutase 2 (Homo sapiens, UniProt O15305); experiment: Counter screen SAR assay for PMM2 inhibitors via a fluorescence intensity assay. [Related pubchem assays (depositor defined):AID1545, AID1574]
[9] = molecular target: T4, Intestinal-type alkaline phosphatase; experiment: PubChem AID 488785; type: functional
[10] = molecular target: T3, Intestinal-type alkaline phosphatase; experiment: inhibition of human intestinal alkaline phosphatase – biochemical, dose response (AID 488876); type: functional
Large T antigen = Large T antigen (Simian virus 40, UniProt P03070); type: functional, Betapolyomavirus macacae;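 further: Confirmatory-stage PubChem screen for compounds that inhibit SV40 T antigen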
[11] = molecular target: T2, Alkaline phosphatase, tissue-nonspecific isozyme; experiment: TNAP enzyme inhibition by screening hits, dose response, selectivity assay for mouse IAP inhibitor project, biochemical, human TNAP, uHTS hits (AID 488906); type: functional
[12] = molecular target: T6, Small ubiquitin-related modifier 1 (Homo sapiens, UniProt P63165); experiment: SUMO1 protein-protein binding blockers, potency – biochemical, FRET, dose response (AID 624383); type: functional; details: read-out: IC50_Mean
[13] = molecular target: T6, Small ubiquitin-related modifier 1; experiment: SUMO1 protein interaction blockers, potency – biochemical, fluorescence polarization, uHTS hits, dose response (AID 624382); type: functional; details: read-out: IC50_Mean
[14] = molecular target: DNA (cytosine-5)-methyltransferase 1 (Homo sapiens, UniProt P26358); experiment: inhibition of DNA methylation by DNMT1 – biochemical, fluorescent molecular beacon, confirmation (AID 602386); type: functional
[15] = molecular target: T7, Voltage-gated N-type calcium channel alpha-1B subunit/Amyloid beta A4 precursor protein-binding family A member 1 (Homo sapiens, UniProt Q00975+Q02410); type: protein assay
T7 sequence (Q00975 whole entry, the tested form may be a part): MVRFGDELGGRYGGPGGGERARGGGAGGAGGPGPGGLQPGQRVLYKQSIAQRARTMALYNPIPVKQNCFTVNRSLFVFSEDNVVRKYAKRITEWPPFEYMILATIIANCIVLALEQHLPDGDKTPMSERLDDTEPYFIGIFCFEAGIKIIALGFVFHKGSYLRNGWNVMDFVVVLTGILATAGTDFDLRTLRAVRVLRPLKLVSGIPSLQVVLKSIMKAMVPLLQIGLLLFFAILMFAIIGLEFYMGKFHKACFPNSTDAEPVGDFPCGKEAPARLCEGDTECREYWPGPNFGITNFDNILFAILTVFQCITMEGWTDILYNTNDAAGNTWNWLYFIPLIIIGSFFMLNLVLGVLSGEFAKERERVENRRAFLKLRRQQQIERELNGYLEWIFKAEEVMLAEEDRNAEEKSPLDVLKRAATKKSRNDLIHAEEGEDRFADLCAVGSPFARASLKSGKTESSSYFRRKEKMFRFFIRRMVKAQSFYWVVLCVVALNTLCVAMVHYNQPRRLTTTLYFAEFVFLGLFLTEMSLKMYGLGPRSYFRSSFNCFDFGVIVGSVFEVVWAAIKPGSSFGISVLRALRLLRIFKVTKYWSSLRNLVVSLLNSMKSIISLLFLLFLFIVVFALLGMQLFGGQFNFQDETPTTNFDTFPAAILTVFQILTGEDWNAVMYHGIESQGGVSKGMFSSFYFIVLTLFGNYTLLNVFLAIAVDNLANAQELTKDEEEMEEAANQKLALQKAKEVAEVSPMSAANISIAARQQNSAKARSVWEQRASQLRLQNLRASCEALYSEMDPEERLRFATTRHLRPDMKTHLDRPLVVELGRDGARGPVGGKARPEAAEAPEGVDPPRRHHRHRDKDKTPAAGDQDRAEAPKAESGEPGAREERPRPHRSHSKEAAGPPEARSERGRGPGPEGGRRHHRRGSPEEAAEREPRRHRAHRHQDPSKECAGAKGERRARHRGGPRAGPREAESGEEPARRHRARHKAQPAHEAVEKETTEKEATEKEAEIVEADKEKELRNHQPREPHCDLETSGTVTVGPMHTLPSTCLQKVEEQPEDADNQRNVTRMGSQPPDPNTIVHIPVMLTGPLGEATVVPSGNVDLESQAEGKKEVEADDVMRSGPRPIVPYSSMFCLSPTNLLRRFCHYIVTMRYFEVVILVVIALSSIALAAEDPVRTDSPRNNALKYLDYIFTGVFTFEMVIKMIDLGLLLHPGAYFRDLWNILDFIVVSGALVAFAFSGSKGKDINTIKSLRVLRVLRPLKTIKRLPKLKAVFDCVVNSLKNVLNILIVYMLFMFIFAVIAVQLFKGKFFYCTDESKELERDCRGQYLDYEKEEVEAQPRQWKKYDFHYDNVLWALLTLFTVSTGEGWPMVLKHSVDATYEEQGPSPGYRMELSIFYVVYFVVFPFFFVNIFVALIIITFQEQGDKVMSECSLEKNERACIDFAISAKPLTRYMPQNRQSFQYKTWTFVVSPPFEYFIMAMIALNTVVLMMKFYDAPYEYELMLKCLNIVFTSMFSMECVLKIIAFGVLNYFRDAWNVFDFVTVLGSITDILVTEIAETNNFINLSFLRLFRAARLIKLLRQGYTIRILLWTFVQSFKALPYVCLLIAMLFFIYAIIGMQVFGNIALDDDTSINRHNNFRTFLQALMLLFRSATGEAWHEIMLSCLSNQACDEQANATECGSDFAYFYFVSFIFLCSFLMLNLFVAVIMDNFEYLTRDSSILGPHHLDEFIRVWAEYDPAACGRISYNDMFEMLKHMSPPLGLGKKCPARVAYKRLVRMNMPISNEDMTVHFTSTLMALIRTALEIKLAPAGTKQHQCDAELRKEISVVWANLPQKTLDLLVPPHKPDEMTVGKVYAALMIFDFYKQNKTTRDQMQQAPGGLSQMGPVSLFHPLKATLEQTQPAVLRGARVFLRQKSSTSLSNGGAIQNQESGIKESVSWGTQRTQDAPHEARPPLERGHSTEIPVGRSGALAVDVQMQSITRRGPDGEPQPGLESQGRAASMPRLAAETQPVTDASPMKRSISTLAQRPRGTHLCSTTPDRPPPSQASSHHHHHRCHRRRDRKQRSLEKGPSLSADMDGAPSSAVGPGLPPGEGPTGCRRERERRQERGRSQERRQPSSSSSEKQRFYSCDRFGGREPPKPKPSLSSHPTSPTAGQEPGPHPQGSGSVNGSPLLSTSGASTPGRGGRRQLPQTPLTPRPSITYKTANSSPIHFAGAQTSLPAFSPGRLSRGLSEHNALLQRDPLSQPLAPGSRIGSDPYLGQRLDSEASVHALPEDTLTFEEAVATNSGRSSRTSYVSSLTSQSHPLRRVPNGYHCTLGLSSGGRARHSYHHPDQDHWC
T7 sequence (Q02410 whole entry, the tested form may be a part): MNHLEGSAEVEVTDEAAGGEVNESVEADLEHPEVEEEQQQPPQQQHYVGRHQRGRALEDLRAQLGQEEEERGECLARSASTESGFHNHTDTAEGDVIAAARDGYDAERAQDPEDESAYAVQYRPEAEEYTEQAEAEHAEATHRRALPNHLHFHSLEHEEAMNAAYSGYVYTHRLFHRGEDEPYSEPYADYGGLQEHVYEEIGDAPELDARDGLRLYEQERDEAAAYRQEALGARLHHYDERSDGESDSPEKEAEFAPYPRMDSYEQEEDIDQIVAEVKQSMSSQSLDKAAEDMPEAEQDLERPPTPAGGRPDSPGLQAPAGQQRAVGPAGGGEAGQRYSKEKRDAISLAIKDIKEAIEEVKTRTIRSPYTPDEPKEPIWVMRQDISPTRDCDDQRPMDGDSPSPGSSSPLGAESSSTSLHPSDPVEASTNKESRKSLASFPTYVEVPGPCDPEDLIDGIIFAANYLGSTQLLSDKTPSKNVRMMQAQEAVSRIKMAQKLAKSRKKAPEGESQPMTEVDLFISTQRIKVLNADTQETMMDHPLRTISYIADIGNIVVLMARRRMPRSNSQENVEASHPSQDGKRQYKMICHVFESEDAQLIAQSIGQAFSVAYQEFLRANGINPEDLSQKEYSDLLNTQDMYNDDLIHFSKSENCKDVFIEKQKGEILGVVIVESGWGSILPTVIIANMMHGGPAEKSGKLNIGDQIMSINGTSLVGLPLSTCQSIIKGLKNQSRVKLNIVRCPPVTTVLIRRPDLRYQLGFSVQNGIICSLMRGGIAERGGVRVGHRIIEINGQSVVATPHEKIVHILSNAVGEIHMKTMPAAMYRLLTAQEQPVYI

[16] = molecular target: T8, Carboxy-terminal domain RNA polymerase II polypeptide A small phosphatase 1 (Homo sapiens, UniProt Q9GZU7); experiment: CTDSP1 inhibitors, concentration-response, biochemical, absorbance readout, ultra-high-throughput screen actives (AID 540297); type: functional
T8 sequence (Q9GZU7 whole entry): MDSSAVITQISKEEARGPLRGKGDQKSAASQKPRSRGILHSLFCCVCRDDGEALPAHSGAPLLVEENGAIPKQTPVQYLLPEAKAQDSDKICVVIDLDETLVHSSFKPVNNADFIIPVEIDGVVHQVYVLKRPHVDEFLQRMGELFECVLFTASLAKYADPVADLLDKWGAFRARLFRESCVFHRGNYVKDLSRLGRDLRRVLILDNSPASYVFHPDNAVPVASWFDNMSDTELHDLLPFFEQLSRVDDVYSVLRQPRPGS

[17] = molecular target: Induced myeloid leukemia cell differentiation protein Mcl-1 (Homo sapiens, UniProt Q07820); type: functional
[18] = molecular target: T9, Apoptotic protease-activating factor 1 (Homo sapiens, UniProt O14727); experiment: activation of Apaf-1 mediated apoptosis – fluorescent, uHTS hits, dose response (AID 588554); type: functional
T9 sequence (O14727 whole entry): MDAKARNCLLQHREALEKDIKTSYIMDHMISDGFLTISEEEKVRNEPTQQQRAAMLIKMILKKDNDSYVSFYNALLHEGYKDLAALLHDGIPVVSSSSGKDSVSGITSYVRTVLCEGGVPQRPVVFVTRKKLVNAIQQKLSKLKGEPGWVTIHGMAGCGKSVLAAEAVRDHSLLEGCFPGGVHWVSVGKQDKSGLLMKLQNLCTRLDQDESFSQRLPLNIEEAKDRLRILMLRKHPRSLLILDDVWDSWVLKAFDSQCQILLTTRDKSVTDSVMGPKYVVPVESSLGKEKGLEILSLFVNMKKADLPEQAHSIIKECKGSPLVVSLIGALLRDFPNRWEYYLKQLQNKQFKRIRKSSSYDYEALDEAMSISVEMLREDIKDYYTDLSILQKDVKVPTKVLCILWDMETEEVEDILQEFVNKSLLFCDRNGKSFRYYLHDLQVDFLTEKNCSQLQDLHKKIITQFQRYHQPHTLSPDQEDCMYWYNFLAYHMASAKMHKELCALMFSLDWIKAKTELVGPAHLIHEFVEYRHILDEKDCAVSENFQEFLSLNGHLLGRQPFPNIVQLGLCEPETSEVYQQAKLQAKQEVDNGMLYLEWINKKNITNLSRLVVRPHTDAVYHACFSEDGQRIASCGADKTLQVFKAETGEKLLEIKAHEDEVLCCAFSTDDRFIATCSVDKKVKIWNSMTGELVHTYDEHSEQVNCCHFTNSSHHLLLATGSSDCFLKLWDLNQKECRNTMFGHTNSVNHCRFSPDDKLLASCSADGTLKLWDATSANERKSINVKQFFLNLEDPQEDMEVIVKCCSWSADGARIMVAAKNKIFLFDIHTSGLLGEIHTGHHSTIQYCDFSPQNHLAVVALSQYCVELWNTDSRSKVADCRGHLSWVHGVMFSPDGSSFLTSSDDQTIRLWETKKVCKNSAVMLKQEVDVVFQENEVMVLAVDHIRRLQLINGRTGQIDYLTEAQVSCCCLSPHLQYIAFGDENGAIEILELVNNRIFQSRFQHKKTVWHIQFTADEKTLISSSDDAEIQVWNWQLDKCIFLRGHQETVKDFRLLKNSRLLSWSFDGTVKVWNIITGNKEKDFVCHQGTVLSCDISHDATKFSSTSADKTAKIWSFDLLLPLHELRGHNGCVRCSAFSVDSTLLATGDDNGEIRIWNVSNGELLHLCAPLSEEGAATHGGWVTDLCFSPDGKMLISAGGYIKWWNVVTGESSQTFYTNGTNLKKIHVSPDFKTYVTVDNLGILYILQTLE

[19] = molecular target: T7, Voltage-gated N-type calcium channel alpha-1B subunit/Amyloid beta A4 precursor protein-binding family A member 1; type: protein assay; remark: listed apart in the source
[20] = molecular target: T10, Delta-type opioid receptor (Homo sapiens, UniProt P41143); experiment: delta opioid receptor blockers – image-based, SAR follow-up (AID 2357); type: functional
[21] = molecular target: T10, Delta-type opioid receptor; experiment: DOR agonists, SAR follow-up, image-based (AID 2370); type: functional
[22] = molecular target: T11, Kappa-type opioid receptor (Homo sapiens, UniProt P41145); experiment: SAR analysis of small molecule agonists of the kappa opioid receptor via a luminescent beta-arrestin assay. [Related pubchem assays (depositor defined):AID1777, AID1786, AID1966, AID2133, AID2136, AID2348, AID2352, AID2357, AID2359, AID2370, AID2420, AID2478, AID2491, AID2492, AID2493, AID2497, AID2498, AID2500, AID449737, AID488822, AID488842]; type: functional
T11 sequence (P41145 whole entry): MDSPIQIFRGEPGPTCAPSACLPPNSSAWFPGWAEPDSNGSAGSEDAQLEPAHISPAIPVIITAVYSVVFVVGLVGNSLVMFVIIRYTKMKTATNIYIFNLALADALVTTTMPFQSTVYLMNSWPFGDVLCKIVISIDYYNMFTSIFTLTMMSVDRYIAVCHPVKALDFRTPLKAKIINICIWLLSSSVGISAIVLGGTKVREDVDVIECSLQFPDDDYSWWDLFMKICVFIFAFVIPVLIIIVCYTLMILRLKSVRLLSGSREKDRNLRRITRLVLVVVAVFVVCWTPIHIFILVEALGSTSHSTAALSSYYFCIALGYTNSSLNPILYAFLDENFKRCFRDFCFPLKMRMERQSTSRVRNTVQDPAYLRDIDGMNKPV

[23] = molecular target: T11, Kappa-type opioid receptor; experiment: kappa opioid receptor blockers, image-based, SAR follow-up (AID 2348); type: functional
[24] = molecular target: T11, Kappa-type opioid receptor; experiment: kappa opioid receptor activation potency – imaging, image-based, SAR follow-up (AID 2359); type: functional
Mu-type opioid receptor [25] = molecular target: T12, Mu-type opioid receptor (Homo sapiens, UniProt P35372); experiment: mu opioid receptor activators, image-based, SAR follow-up (AID 2352); type: functional
T12 sequence (P35372 whole entry): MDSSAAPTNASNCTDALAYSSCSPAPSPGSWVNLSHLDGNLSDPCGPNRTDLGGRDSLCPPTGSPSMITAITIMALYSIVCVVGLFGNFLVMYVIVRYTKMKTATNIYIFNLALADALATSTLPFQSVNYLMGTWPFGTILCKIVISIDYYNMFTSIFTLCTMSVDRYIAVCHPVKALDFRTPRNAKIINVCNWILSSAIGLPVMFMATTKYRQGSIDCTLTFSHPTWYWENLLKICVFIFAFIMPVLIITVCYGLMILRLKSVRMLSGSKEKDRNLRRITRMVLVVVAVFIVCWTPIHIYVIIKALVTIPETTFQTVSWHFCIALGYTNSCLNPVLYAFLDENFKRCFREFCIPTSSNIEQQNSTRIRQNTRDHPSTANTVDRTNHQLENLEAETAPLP

Mu-type opioid receptor [26] = molecular target: T12, Mu-type opioid receptor; experiment: mu opioid receptor blockers – image-based, SAR follow-up (AID 2420); type: functional;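 further: compounds added before stimulation of receptor with agonist DAMGO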

SMILES: COc1cc(/N=c2\ssnc2Cl)c(OC)cc1Cl
IC50 [6]: 6.24 µM (active) | IC50 [7]: 3.12 µM (active) | IC50 [8]: 15.2 µM (active) | IC50 (Phosphomannomutase 2): 97.3 µM (active)

SMILES: Oc1cc(O)c2c(c1)OC(c1ccc(O)c(O)c1)C(O)C2 (stereo not drawn)
IC50 [9]: 24.1 µM (active) | IC50 [10]: > 100 µM (inactive) | IC50 (Large T antigen): 8.64 µM (active) | IC50 [11]: > 100 µM (inactive)

SMILES: C=C(C)C(=O)Nc1cccc(C2=NOC3(C2)C[C@@H](C(N)=O)N(C(=O)/C(C)=C/C)C3)c1 (stereo partly drawn)
IC50 [12]: 869 nM (active) | IC50 [13]: > 66.6 µM (inactive) | IC50 [14]: 1.94 µM (active) | IC50 [15]: 17.7 µM (active) | IC50 [16]: 540 nM (active) | IC50 [17]: 23.6 µM (not active) | EC50 [18]: 1.69 µM (active) | IC50 [19]: > 50 µM (inactive)

Next, values leading:

EC50 [1]: > 285 µM (inactive)
SMILES: Nc1nccnc1C(=O)Nc1nnc(SCc2ccc(Cl)cc2)s1

EC50 [2]: 12.5 µM (active) | EC50 [3]: 7.93 µM (active) | IC50 [4]: 50.4 µM (active) | EC50 [5]: 19.2 µM (active)
SMILES: Cc1nc2c3ccccc3nc(NNC(=O)CCC(=O)NCCC(C)C)n2n1

IC50 [20]: > 32 µM (inactive) | EC50 [21]: > 32 µM (inactive) | EC50 [22]: > 10 µM (inactive) | IC50 [23]: > 32 µM (inactive) | EC50 [24]: > 32 µM (inactive) | EC50 (Mu-type opioid receptor [25]): > 32 µM (inactive) | IC50 (Mu-type opioid receptor [26]): > 32 µM (inactive)
SMILES: COc1ccc(CC2(CO)CCN(Cc3nccn3-c3cccc(C)c3)CC2)cc1
